Measurements as given in paper PMC6560211, “ApoAI-derived peptide increases glucose tolerance and prevents formation of atherosclerosis in mice” (Diabetologia, 2019).
No end group written: not given here.

Legend:
[1] = Peptide homogeneity (particle size) by dynamic light scattering; assay type: physicochemical
Protocol: (§1) Peptide (lyophilised powder) produced by Red Glead (Lund, Sweden) was reconstituted in Milli-Q water and then either used directly or mixed in a 1:1 ratio with 6 mol/l guanidine HCl in 2× PBS to give a monodisperse solution, followed by desalting using a column equilibrated with PBS, pH 7.4, using ÄKTAxpress fast protein LC (GE Healthcare, Uppsala, Sweden). Peptide integrity was analysed using circular dichroism spectroscopy. Peptide solubility was assayed at Red Glead using HPLC. Peptide stability in physiologic buffer or blood plasma (human or mouse) over 2 h was assayed at the Science for Life Laboratory (Uppsala, Sweden). For detailed methods, please refer to the electronic supplementary material (ESM) Methods.
(§2) The peptide RG54 was synthesised with natural amino acids and then modified with an acetylation cap on the N-terminus in order to reduce the susceptibility for proteolytic degradation by […] (ESM Fig. 3a). […] Peptide integrity following the denaturation/refolding procedure was confirmed using gel electrophoresis and circular dichroism spectroscopy analyses (ESM Fig. 3d,e) and by peptide stability assays (buffer or plasma) (ESM Fig. 3f).
ESM Figure 3. Peptide characterization for native or refolded RG54.
(a) Full peptide sequence. Particle size distribution of RG54 was analysed by DLS and frequency curves generated for Native (b) or Refolded (c) peptide. […]

[2] = Peptide solubility by HPLC; assay type: physicochemical; conditions: reconstituted RG54 peptide; assayed using HPLC
Protocol: as §1, §2

Akt and AMPK signalling = assay: Tissue signalling by western blotting; assay type: in vivo, mouse; conditions: soleus muscle, heart muscle and adipose depots in lean mice; 12 mg/kg i.p., 2.5 h; n=4
Protocol: Soleus, heart and fat samples were collected from male C57BL/6NTac mice (Taconic, Ejby, Denmark) after 12 h fasting at 9 weeks of age. The effect of RG54 on Akt and AMPK signalling in vivo was then measured by western blot using the following antibodies (all sourced from Cell Signaling Technology/Bionordika, Stockholm, Sweden): pAKT (#4060, 1:2000), Akt (#4691, 1:1000), pAMPK (#2535, 1:1000), AMPK (#2603, 1:1000) and GAPDH (#D16H11, 1:1000). All antibodies were diluted in Tris-buffered saline (154 mmol/l NaCl) with Tween-20 containing 1% BSA and were validated by the manufacturer. See ESM Methods for more details.
In vitro: glucose uptake measurements
C2C12 […] myoblasts (ATCC #CRL-1772) were grown in DMEM (ATCC) supplemented with 10% FBS (Sigma) and 1% Penicillin, Streptomycin and Amphotericin B (Invitrogen) and maintained at 37°C and 5% CO2. Differentiation to myotubes was achieved by switching from growth media to 2% FBS DMEM for 7 days. […]
No statistical methods were used to predetermine sample sizes, but sample sizes are similar to those reported in the field. […] Group allocation was blinded for all mouse work when possible (such as collection of blood or tissues, sample quantification and analysis, and atherosclerosis scoring). […]
protein concentrations were analysed with Bradford protein assay. […]

Substance: Ac-AEYHAKATEHLSTLSEKAKPALEDLRQGLLPVLESFKVSFLSALEEYTKKLNTQ [RG54]
- homogeneity (DLS) after chemical denaturation and refolding ([1]; 6 mol/l guanidine HCl in 2x PBS 1:1, desalted into PBS pH 7.4): monodisperse preparations
- homogeneity, dynamic size range (DLS) ([1]; native peptide reconstituted in Milli-Q water, five individual experiments): significant inter- and intra-sample heterogeneity
- solubility [2]: > 3000 µg/mL
- AMPK and Akt phosphorylation (Akt and AMPK signalling): minor to no changes
